Earlier results as cited in publication PMC12347832, “Multi-Component Synthesis of New Fluorinated-Pyrrolo[3,4-b]pyridin-5-ones Containing the 4-Amino-7-chloroquinoline Moiety and In Vitro–In Silico Studies Against Human SARS-CoV-2” (International Journal of Molecular Sciences, 2025).

Test system: SARS-CoV-2
Settings: cited from earlier work

For `CCN(CC)CCCC(C)Nc1ccnc2cc(Cl)ccc12` (stereo not shown) [Chloroquine], the IC50 is given as 1.13 µM.
